From patent US11185096B2, “Sweet taste improving compositions including naringenin and steviol glycosides” (DR PEPPER/SEVEN UP, INC., priority 2014, dated 2021) come the findings set out here.

Type in all cases: in vivo
Assay [1] in a line: Taste evaluation of beverages with rebaudioside E, rebaudioside M or both, with and without naringenin (Example 3). On the procedure: In this example, samples were prepared to determine the taste attributes of reduced-calorie beverages including rebaudioside E, rebaudioside M, and combinations of rebaudiosides E and M, with and without naringenin. Beverages were prepared by adding rebaudiosides to the base solution shown in Table E. The tested concentrations of rebaudioside E, rebaudioside M, or a combination of both rebaudiosides, are shown in Table F. Beverages were then prepared by adding naringenin in various amounts, ranging from about 10 ppm to about 300 ppm, as shown in Table G. For example, naringenin was added to the base solution and each of the rebaudioside solutions shown in Table F. Further description of the beverages prepared in Example 3 is also shown in FIG. 2 of the drawings. Each of the prepared beverages was evaluated for changes or improvements for each of sweetness profile (upfront, middle, and back end sweetness), aftertaste (chemical, astringency), mouthfeel (cloying, thickness, thinness), and bitterness (relative to Rebaudioside A). For example, in a protocol to compare the bitterness of beverage samples to rebaudioside A, participants tasted each of an about 10 ml sample of the test beverage and an about 10 ml sample of a beverage including rebaudioside A (prepared in the same base solution shown in Table E). Relative bitterness was then immediately rated between the beverage samples.

Assay [2] can be described thus: Taste evaluation of reduced-calorie beverage (Table C base formula) with added naringenin, compared to a full-calorie beverage (Example 2). The text has this:
The base formula of Table C may provide about a 50% reduction in calories as compared to a typical full-calorie beverage.
For example, delocalization of sweetness, an attribute that relates to the beverage mouthfeel, was increased. […] Moreover, the aftertaste of naringenin-including samples became more syrupy, resulting in an aftertaste that was more similar to the full-calorie product. Improvements in sweetness and aftertaste were found for each of the above samples that included naringenin.

Assay [3] can be described thus: Sensory panel evaluation of naringenin in water (Example 1). Particulars: for Sweetness: sensory panelists. On the procedure:
Naringenin was evaluated in water as shown in Table B. Water used in all beverages described herein was specifically purified prior to use by processes well known in the art such as filtration, deionization, distillation, or reverse osmosis. Evaluation of the samples was performed using evaluation by sensory panelists. Beverage sampling comprised of taking an about 10 mL portion of the beverage into the mouth, holding the sample in the mouth, and rating the sweetness for each sample.

Where [4] appears, read: Table C base formula with naringenin 15 to 300 ppm.

For `O=C1C[C@@H](c2ccc(O)cc2)Oc2cc(O)cc(O)c21` [naringenin], the overall perception result in assay [1] (10, 50 or 70 ppm naringenin with combination of rebaudioside E and rebaudioside M, vs rebaudioside M alone or with naringenin) is given as “perceived as better”; in assay [1] (300 ppm naringenin, Table E base with rebaudioside E 300 ppm) it was “perceived as negative”; in assay [1] (300 ppm naringenin, Table E base with rebaudioside M 300 ppm), “perceived as negative”; in assay [1] (300 ppm naringenin, Table E base with rebaudiosides E and M 150 ppm each), “perceived as negative”. The mouthfeel entry in assay [1] (10 to 70 ppm naringenin with rebaudioside E, compared to rebaudioside E base alone) is reported as “increased”; in assay [1] (higher naringenin concentrations, particularly 300 ppm, Table E base with rebaudioside M 300 ppm, some participants), “cloying mouthfeel”. The “suitability of naringenin level” value in assay [1] (300 ppm naringenin, across all bases) is on record as “too high”. In assay [1] (about 10 ppm to 70 ppm naringenin, Table E base with rebaudioside E 150 ppm and rebaudioside M 150 ppm), the sweetness profiles result is given as “significantly improved”. Besides, the “cloying mouthfeel and aftertaste” value in assay [1] (about 10 ppm to about 70 ppm naringenin, Table E base with rebaudiosides E and M 150 ppm each) is reported as “diminished”. In addition, the “sweetness in the middle of the profile” value in assay [1] (naringenin added to Table E base with rebaudioside E 300 ppm) was “increased”. The “taste character / mouthfeel” value in assay [1] (naringenin added to Table E base with rebaudioside M 300 ppm) is listed as “sticky sweet”. In addition, in assay [2] (setting [4]), the delocalization of sweetness entry is “increased”. Moreover, in assay [2] (setting [4]), the upfront sweetness profile entry is on record as “surprisingly increased”. In assay [2] (Table C base formula with naringenin 15 to 300 ppm, vs full-calorie beverage), the “syrup qualities of the beverages (mouthfeel)” value was “increase syrup qualities”. In addition, in assay [2] (Table C base formula with naringenin 15 to 300 ppm, vs full-calorie product), the aftertaste result is “more syrupy”. The sweetness profile entry in assay [2] (Table C base formula, 15 ppm naringenin) is recorded as “significantly improved”; in assay [2] (Table C base formula, about 30 ppm naringenin), “close to that of the full-calorie product”. For the same compound, in assay [2] (Table C base formula, above 30 ppm up to about 300 ppm naringenin), the “noticeable taste impressions or interference with flavors” value is reported as “did not provide any noticeable taste impressions”. Also, in assay [3] (in water, data of Table B (5 to 200 ppm)), the taste or flavor result is “does not elicit any taste or flavor”. Moreover, the Sweetness result in assay [3] (naringenin 5 ppm in water), in assay [3] (naringenin 10 ppm in water), in assay [3] (naringenin 20 ppm in water), in assay [3] (naringenin 40 ppm in water), in assay [3] (naringenin 80 ppm in water) and in assay [3] (naringenin 100 ppm in water) was “No perceptible sweetness” each time. In assay [3] (naringenin 200 ppm in water), the Sweetness result is “No perceptible sweetness”.
On to `C=C1C[C@@]23CC[C@H]4[C@@](C)(CCC[C@@]4(C)C(=O)O[C@@H]4O[C@H](CO)[C@@H](O)[C@H](O)[C@H]4O[C@@H]4O[C@H](CO)[C@@H](O)[C@H](O)[C@H]4O)[C@@H]2CC[C@]1(O[C@@H]1O[C@H](CO)[C@@H](O)[C@H](O)[C@H]1O[C@@H]1O[C@H](CO)[C@@H](O)[C@H](O)[C@H]1O)C3` [rebaudioside E], for which the sweetness profile result in assay [1] (Table E base with rebaudioside E 300 ppm, without naringenin, in comparison to sugar or rebaudioside M solutions) is “very flat sweetness profile and flat”. The mouthfeel and fullness result in assay [1] (rebaudioside E alone without naringenin, compared to rebaudioside M) was “less mouthfeel and fullness”.
